Data: PubChem BioAssay AID248 (DTP/NCI, 2004)
Where “and” joins values, the source holds several entries; their conditions need not be identical. Equal entries are not always repeated. Toxic doses and inconclusive results are not listed. Cut-off read from the data, not from the text of the source: active = T/C of 150% or more; inactive = T/C below 125%.

Test system: L1210 leukemia ip in BDF1 mice, survival T/C
Test: NCI In Vivo Anticancer Drug Screen. Data for tumor model L1210 Leukemia (intraperitoneal) in B6D2F1 (BDF1) mice
Details: endpoint: mean survival time, higher = longer survival
How it was run: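 Ratio derived from survival: compound-dosed mice over vehicle-dosed mice, all bearing a transplantable tumor.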

[1] = dose: 6.25 mg/kg/injection, schedule: Q01DX009 (ip), vehicle: saline with Tween-80
[2] = dose: 12.5 mg/kg/injection, schedule: Q01DX009 (ip), vehicle: saline with Tween-80
[3] = dose: 100.0 mg/kg/injection, schedule: Q04DX003 (ip), vehicle: saline with Tween-80
[4] = dose: 200.0 mg/kg/injection, schedule: Q04DX003 (ip), vehicle: saline with Tween-80
[5] = dose: 400.0 mg/kg/injection, schedule: Q04DX003 (ip), vehicle: saline with Tween-80
[6] = dose: 100.0 mg/kg/injection, schedule: Q01DX009 (ip), vehicle: Klucel (hydroxypropylcellulose) (HPC)
[7] = dose: 200.0 mg/kg/injection, schedule: Q01DX009 (ip), vehicle: Klucel (hydroxypropylcellulose) (HPC)
[8] = dose: 400.0 mg/kg/injection, schedule: Q01DX009 (ip), vehicle: Klucel (hydroxypropylcellulose) (HPC)
[9] = dose: 100.0 mg/kg/injection, schedule: Q01DX009 (ip), vehicle: saline with Tween-80
[10] = dose: 200.0 mg/kg/injection, schedule: Q01DX009 (ip), vehicle: saline with Tween-80
[11] = dose: 400.0 mg/kg/injection, schedule: Q01DX009 (ip), vehicle: saline with Tween-80

Measured: T/C

COC(CBr)c1ccccc1 (centres undefined)
inactive: dose: 12.5 mg/kg/injection, schedule: Q04DX003 (ip), vehicle: Klucel (hydroxypropylcellulose) (HPC) 98 % of control | dose: 25.0 mg/kg/injection, schedule: Q01DX009 (ip), vehicle: saline 108 % of control | dose: 25.0 mg/kg/injection, schedule: Q04DX003 (ip), vehicle: Klucel (hydroxypropylcellulose) (HPC) 101 % of control | dose: 50.0 mg/kg/injection, schedule: Q01DX009 (ip), vehicle: saline 98 % of control | dose: 50.0 mg/kg/injection, schedule: Q04DX003 (ip), vehicle: Klucel (hydroxypropylcellulose) (HPC) 96 % of control | dose: 100.0 mg/kg/injection, schedule: Q01DX009 (ip), vehicle: saline 95 % of control

CCN(CC)c1ccc(N(C(C)=O)C(C)=O)cc1
inactive: [1] 98 % of control | [2] 96 % of control | dose: 25.0 mg/kg/injection, schedule: Q01DX009 (ip), vehicle: saline with Tween-80 96 % of control

CC(C)(C)c1ccc2oc(-c3ccc(-c4nc5cc(C(C)(C)C)ccc5o4)s3)nc2c1
inactive: dose: 100.0 mg/kg/injection, schedule: Q04DX003 (ip), vehicle: gum acacia 92 % of control | dose: 200.0 mg/kg/injection, schedule: Q04DX003 (ip), vehicle: gum acacia 99 % of control

O=C1Nc2c(ccc3ccccc23)/C1=C/c1ccccc1
inactive: [3] 100 % of control | [4] 100 % of control | [5] 97 % of control

NN1CCCC1C(=O)O (centres undefined)
inactive: dose: 75.0 mg/kg/injection, schedule: Q01DX001 (ip), vehicle: saline 97 % of control | dose: 150.0 mg/kg/injection, schedule: Q01DX001 (ip), vehicle: saline 92 % of control

Cc1c2cnccc2c(C)c2c1c1ccccc1n2CC1CO1 (centres undefined)
inactive: dose: 0.78 mg/kg/injection, schedule: Q01DX009 (ip), vehicle: Klucel (hydroxypropylcellulose) (HPC) 90 % of control | dose: 1.56 mg/kg/injection, schedule: Q01DX009 (ip), vehicle: Klucel (hydroxypropylcellulose) (HPC) 97 % of control | dose: 1.56 mg/kg/injection, schedule: Q01DX009 (ip), vehicle: saline with Tween-80 113 % of control | dose: 3.12 mg/kg/injection, schedule: Q01DX009 (ip), vehicle: Klucel (hydroxypropylcellulose) (HPC) 100 % of control | dose: 3.13 mg/kg/injection, schedule: Q01DX009 (ip), vehicle: saline with Tween-80 110 % of control | dose: 4.12 mg/kg/injection, schedule: Q01DX009 (ip), vehicle: Klucel (hydroxypropylcellulose) (HPC) 120 % of control | dose: 6.25 mg/kg/injection, schedule: Q01DX009 (ip), vehicle: Klucel (hydroxypropylcellulose) (HPC) 94 % of control and 122 % of control | [1] 113 % of control | dose: 6.25 mg/kg/injection, schedule: Q04DX003 (ip), vehicle: saline 110 % of control | dose: 12.5 mg/kg/injection, schedule: Q01DX009 (ip), vehicle: Klucel (hydroxypropylcellulose) (HPC) 113 % of control | [2] 120 % of control | dose: 25.0 mg/kg/injection, schedule: Q01DX009 (ip), vehicle: Klucel (hydroxypropylcellulose) (HPC) 119 % of control and 86 % of control | dose: 25.0 mg/kg/injection, schedule: Q04DX003 (ip), vehicle: saline 123 % of control | dose: 65.0 mg/kg/injection, schedule: Q04DX003 (ip), vehicle: saline 108 % of control and 117 % of control | dose: 100.0 mg/kg/injection, schedule: Q04DX003 (ip), vehicle: saline 104 % of control and 114 % of control | dose: 150.0 mg/kg/injection, schedule: Q04DX003 (ip), vehicle: saline 108 % of control

Cc1cc(=O)c(O)co1
inactive: [6] 98 % of control | dose: 100.0 mg/kg/injection, schedule: Q04DX003 (ip), vehicle: Klucel (hydroxypropylcellulose) (HPC) 101 % of control | [7] 93 % of control | dose: 200.0 mg/kg/injection, schedule: Q04DX003 (ip), vehicle: Klucel (hydroxypropylcellulose) (HPC) 101 % of control | [8] 93 % of control | dose: 400.0 mg/kg/injection, schedule: Q04DX003 (ip), vehicle: Klucel (hydroxypropylcellulose) (HPC) 101 % of control

CC12CCC(=O)CC1CCC1C2CCC2(C)C(C(=O)O)CCC12 (centres undefined)
inactive: dose: 25.0 mg/kg/injection, schedule: Q04DX002 (ip), vehicle: saline with Tween-80 99 % of control | dose: 50.0 mg/kg/injection, schedule: Q04DX002 (ip), vehicle: saline with Tween-80 96 % of control | dose: 100.0 mg/kg/injection, schedule: Q04DX002 (ip), vehicle: saline with Tween-80 108 % of control

O=C1OC(=O)C2C3CC(C(Br)C3C(F)(Br)Br)C12 (centres undefined)
inactive: [9] 87 % of control | [3] 115 % of control | [10] 93 % of control | [4] 98 % of control | [11] 90 % of control | [5] 91 % of control

Oc1ccc(CN2CCCCC2)c2cccnc12
inactive: dose: 75.0 mg/kg/injection, schedule: Q01DX001 (ip), vehicle: carboxymethylcellulose (CMC) 106 % of control | dose: 150.0 mg/kg/injection, schedule: Q01DX001 (ip), vehicle: carboxymethylcellulose (CMC) 106 % of control

O=c1oc2ccccc2c(N2CCCCC2)c1Cl
inactive: dose: 100.0 mg/kg/injection, schedule: Q04DX002 (ip), vehicle: gum acacia 111 % of control | dose: 200.0 mg/kg/injection, schedule: Q04DX002 (ip), vehicle: gum acacia 104 % of control | dose: 400.0 mg/kg/injection, schedule: Q04DX002 (ip), vehicle: gum acacia 93 % of control

CSc1ccc(NC(=O)C2CCCCC2C(=O)O)cc1 (centres undefined)
inactive: dose: 100.0 mg/kg/injection, schedule: Q04DX002 (ip), vehicle: Klucel (hydroxypropylcellulose) (HPC) 92 % of control | dose: 200.0 mg/kg/injection, schedule: Q04DX002 (ip), vehicle: Klucel (hydroxypropylcellulose) (HPC) 111 % of control | dose: 400.0 mg/kg/injection, schedule: Q04DX002 (ip), vehicle: Klucel (hydroxypropylcellulose) (HPC) 96 % of control

Cc1ccc(C#N)cc1
inactive: [9] 98 % of control | [3] 94 % of control | [10] 93 % of control | [4] 92 % of control | [11] 98 % of control | [5] 96 % of control

OC(c1ccccc1)(c1ccccc1)C(F)(F)C(F)(F)C(F)(F)F
inactive: dose: 222.0 mg/kg/injection, schedule: Q01DX Z (ip), vehicle: methylcellulose (MC) 89 % of control | dose: 333.0 mg/kg/injection, schedule: Q01DX Z (ip), vehicle: methylcellulose (MC) 96 % of control

Cc1cc(C)c(-c2c(C)cc(C)cc2CBr)c(CBr)c1
inactive: [6] 108 % of control | [7] 99 % of control | [8] 99 % of control

CCCCCCC(=O)C(O)C(O)C(=O)CCCCCCCC(=O)O (centres undefined)
inactive: dose: 100.0 mg/kg/injection, schedule: Q04DX002 (ip), vehicle: other 91 % of control | dose: 200.0 mg/kg/injection, schedule: Q04DX002 (ip), vehicle: other 98 % of control | dose: 400.0 mg/kg/injection, schedule: Q04DX002 (ip), vehicle: other 102 % of control

O=C1c2ccccc2C(=O)N1c1cc(OCc2ccccc2)cc(OCc2ccccc2)c1
inactive: dose: 100.0 mg/kg/injection, schedule: Q01DX009 (ip), vehicle: water 94 % of control | dose: 100.0 mg/kg/injection, schedule: Q04DX003 (ip), vehicle: water 104 % of control | dose: 200.0 mg/kg/injection, schedule: Q01DX009 (ip), vehicle: water 91 % of control | dose: 200.0 mg/kg/injection, schedule: Q04DX003 (ip), vehicle: water 102 % of control | dose: 400.0 mg/kg/injection, schedule: Q01DX009 (ip), vehicle: water 91 % of control | dose: 400.0 mg/kg/injection, schedule: Q04DX003 (ip), vehicle: water 102 % of control

CCCCCCCCCCCCC/C=C\C(=O)N(CCCCN(C)C)CCCCN(C)C
inactive: dose: 2.0 mg/kg/injection, schedule: Q01DX009 (ip), vehicle: carboxymethylcellulose (CMC) 107 % of control | dose: 4.0 mg/kg/injection, schedule: Q01DX009 (ip), vehicle: carboxymethylcellulose (CMC) 104 % of control | dose: 6.0 mg/kg/injection, schedule: Q01DX009 (ip), vehicle: carboxymethylcellulose (CMC) 101 % of control | dose: 8.0 mg/kg/injection, schedule: Q01DX009 (ip), vehicle: carboxymethylcellulose (CMC) 103 % of control | dose: 10.0 mg/kg/injection, schedule: Q01DX009 (ip), vehicle: carboxymethylcellulose (CMC) 90 % of control

Cc1ccc(NP(N)(=O)Nc2ccc(C)cc2)cc1
inactive: dose: 50.0 mg/kg/injection, schedule: Q01DX001 (ip), vehicle: alcohol 102 % of control | dose: 100.0 mg/kg/injection, schedule: Q01DX001 (ip), vehicle: alcohol 102 % of control | dose: 200.0 mg/kg/injection, schedule: Q01DX001 (ip), vehicle: alcohol 108 % of control | dose: 400.0 mg/kg/injection, schedule: Q01DX001 (ip), vehicle: alcohol 96 % of control
